Reference: patent US11766411B2, “Use of cannabinoids in the treatment of epilepsy” (GW Research Limited, priority 2014, dated 2023)

How the values were obtained:
patients with FIRES = experiment: Expanded access program, febrile infection related epilepsy syndrome (FIRES) patients; type: in vivo, human; set-up: Change from Baseline: unit not given here; conditions: for % Change from Baseline / Change from Baseline / Frequency (per month) / Responder (>=50% Reduction) / Responder (>=70% Reduction) / Responder (>=90% Reduction) / Seizure Free: total seizures
Experimental: Three patients with FIRES, with an age range of from 4 to 15 years, were treated with CBD under an expanded access program as described previously in Example 1.
Safety laboratory studies, physical/neurological exams, 24 hour video/EEG and seizure types and frequencies were assessed at baseline and one month after starting CBD.
A highly purified extract of CBD as an oral solution in sesame oil was used at a concentration of 25 mg/mL.
Treatment was initiated at a dose of 10 mg/kg/day given in two divided doses, increasing by 5 mg/kg/day every 3 days.
Following seizure improvement an average of 2 AEDs were weaned.

[1] = test system: adult patients with generalized epilepsy; conditions: eight adult patients with generalized epilepsy; cited from earlier work
[2] = FIRES patients (n = 3), after 12 weeks of treatment

C=C(C)[C@@H]1CCC(C)=C[C@H]1c1c(O)cc(CCCCC)cc1O [CBD, Cannabidiol]
functional recovery after a reduction in seizures (patients with FIRES; FIRES patients): able to walk and verbalise once more | Responder rate (>50% reduction) [%] (patients with FIRES; [2]): 67% | Responder rate (>50% reduction), number of patients (patients with FIRES; [2]): 2 | Responder rate (>70% reduction) [%] (patients with FIRES; [2]): 67% | Responder rate (>70% reduction), number of patients (patients with FIRES; [2]): 2 | Responder rate (>90% reduction) [%] (patients with FIRES; [2]): 67% | Responder rate (>90% reduction), number of patients (patients with FIRES; [2]): 2 | Seizure free [%] (patients with FIRES; [2]): 33% | Seizure free, number of patients (patients with FIRES; [2]): 1 | seizure freedom over the treatment period (patients with FIRES; Patient 1, 24 week period): seizure free after starting treatment for almost all of the treatment period | reduction in seizures (patients with FIRES; Patient 2, after 4 weeks): 50% | reduction in the number of seizures (patients with FIRES; Patient 3, week 24): greater than 90% | improvement in clinical and electrographic seizure burden (patients with FIRES; in two of the three children with refractory seizures or status epilepticus due to FIRES): greater than 90% | Follow up laboratory tests (safety studies, concomitant AED levels) (patients with FIRES; three FIRES patients): no changes in safety studies or concomitant AED levels | tolerability (patients with FIRES; three FIRES patients): very well tolerated | treatment related adverse effects (patients with FIRES; three FIRES patients): No treatment related adverse effects | % Change from Baseline (patients with FIRES; Patient 1, Wk 4): −100.0% | Change from Baseline (patients with FIRES; Patient 1, Wk 4): −4.0 | Frequency (per month) (patients with FIRES; Patient 1, Wk 4): 0.0 per month | Responder (>=50% Reduction) (patients with FIRES; Patient 1, Wk 4): Yes | Responder (>=70% Reduction) (patients with FIRES; Patient 1, Wk 4): Yes | Responder (>=90% Reduction) (patients with FIRES; Patient 1, Wk 4): Yes | Seizure Free (patients with FIRES; Patient 1, Wk 4): Yes | % Change from Baseline (patients with FIRES; Patient 1, Wk 8): −75.0% | Change from Baseline (patients with FIRES; Patient 1, Wk 8): −3.0 | Frequency (per month) (patients with FIRES; Patient 1, Wk 8): 1.0 per month | Responder (>=50% Reduction) (patients with FIRES; Patient 1, Wk 8): Yes | Responder (>=70% Reduction) (patients with FIRES; Patient 1, Wk 8): Yes | Responder (>=90% Reduction) (patients with FIRES; Patient 1, Wk 8): No | Seizure Free (patients with FIRES; Patient 1, Wk 8): No | % Change from Baseline (patients with FIRES; Patient 1, Wk 12): −100.0% | Change from Baseline (patients with FIRES; Patient 1, Wk 12): −4.0 | Frequency (per month) (patients with FIRES; Patient 1, Wk 12): 0.0 per month | Responder (>=50% Reduction) (patients with FIRES; Patient 1, Wk 12): Yes | Responder (>=70% Reduction) (patients with FIRES; Patient 1, Wk 12): Yes | Responder (>=90% Reduction) (patients with FIRES; Patient 1, Wk 12): Yes | Seizure Free (patients with FIRES; Patient 1, Wk 12): Yes | % Change from Baseline (patients with FIRES; Patient 1, Wk 16): −100.0% | Change from Baseline (patients with FIRES; Patient 1, Wk 16): −4.0 | Frequency (per month) (patients with FIRES; Patient 1, Wk 16): 0.0 per month | Responder (>=50% Reduction) (patients with FIRES; Patient 1, Wk 16): Yes | Responder (>=70% Reduction) (patients with FIRES; Patient 1, Wk 16): Yes | Responder (>=90% Reduction) (patients with FIRES; Patient 1, Wk 16): Yes | Seizure Free (patients with FIRES; Patient 1, Wk 16): Yes | % Change from Baseline (patients with FIRES; Patient 1, Wk 24): −92.0% | Change from Baseline (patients with FIRES; Patient 1, Wk 24): −3.7 | Frequency (per month) (patients with FIRES; Patient 1, Wk 24): 0.3 per month | Responder (>=50% Reduction) (patients with FIRES; Patient 1, Wk 24): Yes | Responder (>=70% Reduction) (patients with FIRES; Patient 1, Wk 24): Yes | Responder (>=90% Reduction) (patients with FIRES; Patient 1, Wk 24): Yes | Seizure Free (patients with FIRES; Patient 1, Wk 24): No | % Change from Baseline (patients with FIRES; Patient 2, Wk 2): −88.6% | Change from Baseline (patients with FIRES; Patient 2, Wk 2): −6.2 | Frequency (per month) (patients with FIRES; Patient 2, Wk 2): 0.8 per month | Responder (>=50% Reduction) (patients with FIRES; Patient 2, Wk 2): Yes | Responder (>=70% Reduction) (patients with FIRES; Patient 2, Wk 2): Yes | Responder (>=90% Reduction) (patients with FIRES; Patient 2, Wk 2): No | Seizure Free (patients with FIRES; Patient 2, Wk 2): No | % Change from Baseline (patients with FIRES; Patient 2, Wk 4): −57.1% | Change from Baseline (patients with FIRES; Patient 2, Wk 4): −4.0 | Frequency (per month) (patients with FIRES; Patient 2, Wk 4): 3.0 per month | Responder (>=50% Reduction) (patients with FIRES; Patient 2, Wk 4): Yes | Responder (>=70% Reduction) (patients with FIRES; Patient 2, Wk 4): No | Responder (>=90% Reduction) (patients with FIRES; Patient 2, Wk 4): No | Seizure Free (patients with FIRES; Patient 2, Wk 4): No | % Change from Baseline (patients with FIRES; Patient 2, Wk 8): 42.9% | Change from Baseline (patients with FIRES; Patient 2, Wk 8): 3.0 | Frequency (per month) (patients with FIRES; Patient 2, Wk 8): 10.0 per month | Responder (>=50% Reduction) (patients with FIRES; Patient 2, Wk 8): No | Responder (>=70% Reduction) (patients with FIRES; Patient 2, Wk 8): No | Responder (>=90% Reduction) (patients with FIRES; Patient 2, Wk 8): No | Seizure Free (patients with FIRES; Patient 2, Wk 8): No | % Change from Baseline (patients with FIRES; Patient 2, Wk 12): 14.3% | Change from Baseline (patients with FIRES; Patient 2, Wk 12): 1.0 | Frequency (per month) (patients with FIRES; Patient 2, Wk 12): 8.0 per month | Responder (>=50% Reduction) (patients with FIRES; Patient 2, Wk 12): No | Responder (>=70% Reduction) (patients with FIRES; Patient 2, Wk 12): No | Responder (>=90% Reduction) (patients with FIRES; Patient 2, Wk 12): No | Seizure Free (patients with FIRES; Patient 2, Wk 12): No | % Change from Baseline (patients with FIRES; Patient 2, Wk 16): −42.9% | Change from Baseline (patients with FIRES; Patient 2, Wk 16): −3.0 | Frequency (per month) (patients with FIRES; Patient 2, Wk 16): 4.0 per month | Responder (>=50% Reduction) (patients with FIRES; Patient 2, Wk 16): No | Responder (>=70% Reduction) (patients with FIRES; Patient 2, Wk 16): No | Responder (>=90% Reduction) (patients with FIRES; Patient 2, Wk 16): No | Seizure Free (patients with FIRES; Patient 2, Wk 16): No | % Change from Baseline (patients with FIRES; Patient 3, Wk 4): −99.2% | Change from Baseline (patients with FIRES; Patient 3, Wk 4): −5552.8 | Frequency (per month) (patients with FIRES; Patient 3, Wk 4): 47.2 per month | Responder (>=50% Reduction) (patients with FIRES; Patient 3, Wk 4): Yes | Responder (>=70% Reduction) (patients with FIRES; Patient 3, Wk 4): Yes | Responder (>=90% Reduction) (patients with FIRES; Patient 3, Wk 4): Yes | Seizure Free (patients with FIRES; Patient 3, Wk 4): No | % Change from Baseline (patients with FIRES; Patient 3, Wk 8): −99.8% | Change from Baseline (patients with FIRES; Patient 3, Wk 8): −5590.8 | Frequency (per month) (patients with FIRES; Patient 3, Wk 8): 9.2 per month | Responder (>=50% Reduction) (patients with FIRES; Patient 3, Wk 8): Yes | Responder (>=70% Reduction) (patients with FIRES; Patient 3, Wk 8): Yes | Responder (>=90% Reduction) (patients with FIRES; Patient 3, Wk 8): Yes | Seizure Free (patients with FIRES; Patient 3, Wk 8): No | % Change from Baseline (patients with FIRES; Patient 3, Wk 12): −97.5% | Change from Baseline (patients with FIRES; Patient 3, Wk 12): −5458.4 | Frequency (per month) (patients with FIRES; Patient 3, Wk 12): 141.6 per month | Responder (>=50% Reduction) (patients with FIRES; Patient 3, Wk 12): Yes | Responder (>=70% Reduction) (patients with FIRES; Patient 3, Wk 12): Yes | Responder (>=90% Reduction) (patients with FIRES; Patient 3, Wk 12): Yes | Seizure Free (patients with FIRES; Patient 3, Wk 12): No | % Change from Baseline (patients with FIRES; Patient 3, Wk 24): −90.3% | Change from Baseline (patients with FIRES; Patient 3, Wk 24): −5058.0 | Frequency (per month) (patients with FIRES; Patient 3, Wk 24): 542.0 per month | Responder (>=50% Reduction) (patients with FIRES; Patient 3, Wk 24): Yes | Responder (>=70% Reduction) (patients with FIRES; Patient 3, Wk 24): Yes | Responder (>=90% Reduction) (patients with FIRES; Patient 3, Wk 24): Yes | Seizure Free (patients with FIRES; Patient 3, Wk 24): No | patients with a marked reduction of seizures [1]: 4
